Experimental findings from patent US8470765B2, “Polypeptides and antibacterial or antiseptic use of same” (AnGes MG, Inc., priority 2009, dated 2013) are described below.

Assay [1] deals with Fusobacterium nucleatum JCM 11025. Briefly: microbe, parasite or virus in culture. To be noted: JCM11025, read-out: MIC Fusobacterium nucleatum.
The test system of assay [2] is Acinetobacter baumanni JCM6841. As to conditions: Table 4; two tests, first/second value where not identical.
Assay [3] has as its system Streptococcus pyogenes JCM5674. Briefly: microbe, parasite or virus in culture. To be noted: JCM5674, read-out: MIC Streptococcus pyogenes.
Assay [4] relates to Salmonella enteritidis IID 604. Briefly: microbe, parasite or virus in culture. As to conditions: Salmonella enterica, read-out: MIC Salmonella Enteritidis.
For assay [5], the system named is Bacteroides fragilis JCM 11019. Put plainly: microbe, parasite or virus in culture. To be noted: JCM11019, read-out: MIC Bacteroides fragilis.
Assay [6] deals with Salmonella typhimurium JCM1652. Put plainly: microbe, parasite or virus in culture. To be noted: Salmonella enterica, read-out: MIC Salmonella Typhimurium.
Assay [7] relates to Actinobacillus actinomycetemcomitans JCM2434. Put plainly: microbe, parasite or virus in culture. To be noted: Aggregatibacter actinomycetemcomitans, JCM2434, read-out: MIC Actinobacillus actinomycetemcomitans.
In assay [8] the test system is Bacillus subtilis NBRC3134. Briefly: microbe, parasite or virus in culture. To be noted: NBRC3134, read-out: MIC Bacillus subtilis.
The test system of assay [9] is Micrococcus luteus NBRC13867. Put plainly: microbe, parasite or virus in culture. As to conditions: NBRC13867, read-out: MIC Micrococcus luteus.
The test system of assay [10] is Staphylococcus aureus ATCC29213. Put plainly: microbe, parasite or virus in culture. As to conditions: Staphylococcus aureus, ATCC29213, read-out: MIC Staphylococcus aureus; Table 4; two tests, first/second value where not identical. It is filed as cell-based. The gist of the method:
(§1)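 Broth microdilution in Mueller-Hinton broth with about 10^5 CFU/mL final inoculum, prepared from log-phase cultures adjusted to McFarland 0.5. Peptides were diluted in MHB from 128 μg/mL and incubated with cells at 37° C for 16 to 24 hours. MIC was the lowest concentration with no visible growth.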

Assay [11] concerns Staphylococcus epidermidis JCM 2414. Briefly: microbe, parasite or virus in culture. As to conditions: Staphylococcus epidermidis, JCM2414, read-out: MIC Staphylococcus epidermidis; Table 4; two tests, first/second value where not identical. It is filed as cell-based. The gist of the method: as §1
Assay [12] concerns Escherichia coli ATCC 25922. Briefly: ATP Assay (viability at 3 hours), Table 6. As to conditions: ATCC25922, 3 h, read-out: Escherichia coli ATP (viability, relative value to negative control). It is filed as cell-based. The gist of the method:
(§2)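 Log-phase bacteria at about 10^5 CFU/mL final in Mueller-Hinton broth were exposed 3 h at 37 °C to peptide (solution prepared at 10 μg/mL before 1:1 mixing with inoculum). ATP (BacTiter-Glo luminescence) relative to untreated wells defined viability; two independent experiments.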

Assay [13] relates to Pseudomonas aeruginosa ATCC 27853. Briefly: ATP Assay (viability at 3 hours), Table 6. As to conditions: ATCC27853, 3 h, read-out: Pseudomonas aeruginosa ATP (viability, relative value to negative control). Type of assay: cell-based. The gist of the method:
as §2

Assay [14] deals with Staphylococcus aureus ATCC29213. Put plainly: ATP Assay (viability at 3 hours), Table 6. To be noted: ATCC29213, 3 h, read-out: Staphylococcus aureus ATP (viability, relative value to negative control). It is filed as cell-based. The gist of the method:
as §2

Assay [15] deals with methicillin-sensitive Staphylococcus (MSSA) MSSA(i). Put plainly: organism not typed. As to conditions: read-out: MIC MSSA(i). The procedure: (§3) Bacteria (Escherichia coli ATCC 25922, Pseudomonas aeruginosa ATCC 27853, Staphylococcus aureus ATCC29213, Klebsiella pneumoniae JCM 1662, Enterobacter cloacae JCM 1232, Enterobacter aerogenes JCM 1235 and Staphylococcus epidermidis JCM 2414) were inoculated to Mueller-Hinton broth: MHB or LB medium, and cultured at a temperature and period suited for each strain. From the thus obtained colonies, each strain was inoculated to a fresh liquid medium and cultured for 16 to 20 hours. Then an aliquot having a volume (10 to 50 appropriate to each strain was inoculated to a fresh liquid medium and cultured for 4 to 6 hours, followed by the measurement of the absorbance at 600 nm. After comparing the turbidity with McFarland #0.5, the resultant was diluted with a medium. Each strain was added to about 10^5 CFU/mL (final concentration).
(§4) Further, the antibacterial activities against the clinical strains collected and isolated from infected patients were also examined. The tests were carried out for two methicillin-resistant Staphylococcus (MRSA) (MRSA (i) and (ii)), two methicillin-sensitive Staphylococcus (MSSA) (MSSA (i) and (ii)), five Pseudomonas aeruginosa, Pseudomonas aeruginosa 1, Pseudomonas aeruginosa 6, Pseudomonas aeruginosa 8. Pseudomonas aeruginosa 9 and Pseudomonas aeruginosa 12, totally 9 clinical strains. The MRSA and MSSA clinical strains were tested by the same method as Staphylococcus aureus ATCC29213, and Pseudomonas clinical strains were tested by the same method as Pseudomonas aeruginosa ATCC 27853.
(§5) Each of the peptide solutions to be tested was diluted with MHB to obtain a solution of 128 μg/mL. This solution was serially diluted with the medium to prepare peptide-containing media having concentrations of 128, 64, 32, 16, 8.0, 4.0 and 2.0 μg/mL respectively. […] By dilution with sterilized purified water to 1.0 mg/mL, positive control-containing media having concentrations of 16, 8, 4, 2, 1.0, 0.25, 0.12 and 0.06 μg/mL, respectively for TOB; 0.5, 0.12 and 0.06 μg/mL, respectively, for OX; and 16, 8, 4, 2, 1.0, 0.25, 0.12, 0.06, 0.06, 0.03 and 0.008 μg/mL, respectively, for MEPM, were prepared.
(§6) To a 96-well microtiter plate, 0.1 mL of the inoculation solution and 0.1 mL of the peptide- or positive control-containing medium having the respective concentration were added, and cultured at 37° C. for 16 to 24 hours (or a time period suited for the growth of the respective strain). The well not containing the sample was used as a negative control. After the culturing, the growth was visually observed, and the minimum concentration at which the growth was inhibited was defined as the minimum growth inhibition concentration (MIC).
(§7) The medium used in this test for bacteria was Mueller-Hinton broth. Independent experiments were carried out twice or more for each strain.

Assay [16] concerns methicillin-resistant Staphylococcus (MRSA) MRSA(i). Put plainly: organism not typed. To be noted: read-out: MIC MRSA(i). On the procedure: as §3, §4, §5, §6, §7
Assay [17] concerns methicillin-sensitive Staphylococcus (MSSA) MSSA(ii). Put plainly: organism not typed. As to conditions: read-out: MIC MSSA(ii). The procedure: as §3, §4, §5, §6, §7
In assay [18] the test system is methicillin-resistant Staphylococcus (MRSA) MRSA(ii). Briefly: organism not typed. To be noted: read-out: MIC MRSA(ii). The procedure:
as §3, §4, §5, §6, §7

Converted amounts (≈) assume the structure as drawn.

As for `O=C(N[C@H](CO)[C@H](O)c1ccc([N+](=O)[O-])cc1)C(Cl)Cl` [chloramphenicol], the MIC stood at 0.25 µg/mL (≈ 0.774 µM) in assay [1]; 2 µg/mL (≈ 6.19 µM) in [3]; 4 µg/mL (≈ 12.4 µM) in assay [4]; 1 µg/mL (≈ 3.09 µM) in assay [5]; 4 µg/mL (≈ 12.4 µM) in [6]; 0.5 µg/mL (≈ 1.55 µM) in assay [7]. The MIC in assay [8] stood at 4 µg/mL (≈ 12.4 µM); in [9] it was 1 µg/mL (≈ 3.09 µM). Also, the “MIC Acinetobacter baumanni” value in assay [2] is reported as 16/32.
As to `Cc1onc(-c2ccccc2)c1C(=O)N[C@@H]1C(=O)N2[C@@H]1SC(C)(C)[C@@H]2C(=O)O` [oxacillin, reference compound], the MIC in assay [10] was 0.15 to 0.5 µg/mL (≈ 0.374 to 1.25 µM); in assay [11], 0.15 to 0.5 µg/mL (≈ 0.374 to 1.25 µM); in assay [15], 8 µg/mL (≈ 19.9 µM); in [16], < 4000 µg/mL; in [17], 2 µg/mL (≈ 4.98 µM); in assay [18], > 8000 µg/mL. The viability at 10 µg/mL in assay [12] came to 142%; in assay [13], 100%; in assay [14] it was 121%.

In general, viability refers to a read-out of living cells in per cent, often relative to untreated cells.
